# Assay results: US7589212B2, “Human protein tyrosine phosphatase inhibitors and methods of use” (Procter & Gamble Company, priority 2006, dated 2009)
# Key:
# PTP1B = target: T1, PTP1B (Homo sapiens, UniProt P18031); assay: PTP1B inhibition (IC50); assay type: biochemical
# T1 sequence (P18031 1-435): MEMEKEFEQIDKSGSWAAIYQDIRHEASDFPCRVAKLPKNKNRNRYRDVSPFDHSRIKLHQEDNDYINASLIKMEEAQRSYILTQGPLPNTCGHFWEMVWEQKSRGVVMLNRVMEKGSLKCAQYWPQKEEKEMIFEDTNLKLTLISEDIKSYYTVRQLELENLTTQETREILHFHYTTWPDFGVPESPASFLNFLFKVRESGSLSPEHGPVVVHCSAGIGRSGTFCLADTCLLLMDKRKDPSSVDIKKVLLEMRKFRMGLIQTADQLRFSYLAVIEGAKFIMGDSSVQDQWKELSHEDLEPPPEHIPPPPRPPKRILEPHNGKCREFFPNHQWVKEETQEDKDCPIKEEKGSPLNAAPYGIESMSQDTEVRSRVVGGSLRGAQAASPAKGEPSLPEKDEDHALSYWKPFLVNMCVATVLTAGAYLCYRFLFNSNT
# HPTPβ = HPTPβ (Homo sapiens, UniProt P23467); assay: HPTPβ inhibition (IC50); assay type: biochemical
# HPTPβ, sequence (P23467 23-1997): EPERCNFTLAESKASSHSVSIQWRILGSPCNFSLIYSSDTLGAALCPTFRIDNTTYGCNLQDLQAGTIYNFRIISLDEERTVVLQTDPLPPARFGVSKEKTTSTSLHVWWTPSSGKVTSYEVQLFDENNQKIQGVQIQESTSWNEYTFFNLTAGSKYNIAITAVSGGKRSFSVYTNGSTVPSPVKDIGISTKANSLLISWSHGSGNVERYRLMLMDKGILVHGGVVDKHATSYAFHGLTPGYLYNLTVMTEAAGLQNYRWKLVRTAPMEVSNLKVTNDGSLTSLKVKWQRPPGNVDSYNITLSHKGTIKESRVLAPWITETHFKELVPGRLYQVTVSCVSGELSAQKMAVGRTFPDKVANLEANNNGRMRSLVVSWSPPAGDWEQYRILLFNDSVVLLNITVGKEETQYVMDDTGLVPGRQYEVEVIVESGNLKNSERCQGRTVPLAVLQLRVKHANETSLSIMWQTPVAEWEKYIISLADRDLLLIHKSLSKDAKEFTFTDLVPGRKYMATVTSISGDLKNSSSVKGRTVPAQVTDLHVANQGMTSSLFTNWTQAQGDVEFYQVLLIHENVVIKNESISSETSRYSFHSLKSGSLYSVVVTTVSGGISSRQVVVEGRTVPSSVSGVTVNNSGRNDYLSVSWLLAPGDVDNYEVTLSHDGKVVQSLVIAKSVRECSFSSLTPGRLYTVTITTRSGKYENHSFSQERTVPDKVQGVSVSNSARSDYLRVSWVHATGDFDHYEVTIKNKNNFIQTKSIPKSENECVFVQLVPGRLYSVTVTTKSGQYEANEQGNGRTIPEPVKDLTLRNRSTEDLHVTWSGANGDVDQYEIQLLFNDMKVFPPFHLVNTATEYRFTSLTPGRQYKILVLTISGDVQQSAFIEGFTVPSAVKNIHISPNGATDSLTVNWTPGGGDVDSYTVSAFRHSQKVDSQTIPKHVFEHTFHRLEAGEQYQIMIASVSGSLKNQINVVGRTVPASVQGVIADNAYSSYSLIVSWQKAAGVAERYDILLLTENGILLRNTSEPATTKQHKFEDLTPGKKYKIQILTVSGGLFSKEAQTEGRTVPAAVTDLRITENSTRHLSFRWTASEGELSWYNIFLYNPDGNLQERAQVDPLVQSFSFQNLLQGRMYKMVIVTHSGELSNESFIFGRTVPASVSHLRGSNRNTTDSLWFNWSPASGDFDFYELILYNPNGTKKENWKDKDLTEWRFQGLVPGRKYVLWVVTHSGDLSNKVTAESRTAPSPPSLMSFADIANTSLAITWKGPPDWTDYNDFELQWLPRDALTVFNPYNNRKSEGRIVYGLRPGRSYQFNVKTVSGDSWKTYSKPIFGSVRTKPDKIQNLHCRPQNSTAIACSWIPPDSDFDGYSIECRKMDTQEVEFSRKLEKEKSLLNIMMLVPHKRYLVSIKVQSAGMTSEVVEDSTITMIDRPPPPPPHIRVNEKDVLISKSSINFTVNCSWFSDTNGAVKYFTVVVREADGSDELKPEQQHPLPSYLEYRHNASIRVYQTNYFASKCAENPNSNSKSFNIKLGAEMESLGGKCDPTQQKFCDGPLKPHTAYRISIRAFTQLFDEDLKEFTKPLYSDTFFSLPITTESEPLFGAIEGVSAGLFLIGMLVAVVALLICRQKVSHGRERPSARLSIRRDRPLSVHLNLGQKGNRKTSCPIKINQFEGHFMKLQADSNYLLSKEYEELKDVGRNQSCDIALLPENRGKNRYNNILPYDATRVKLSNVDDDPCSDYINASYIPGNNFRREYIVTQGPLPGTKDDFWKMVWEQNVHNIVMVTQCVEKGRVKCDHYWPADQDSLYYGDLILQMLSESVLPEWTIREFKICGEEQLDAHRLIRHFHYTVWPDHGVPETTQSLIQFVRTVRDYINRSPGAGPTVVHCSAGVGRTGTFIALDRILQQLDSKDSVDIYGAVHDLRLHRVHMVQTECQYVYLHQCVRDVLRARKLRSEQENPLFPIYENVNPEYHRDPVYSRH
Compound,IC50 (PTP1B) [nM],IC50 (HPTPβ) [nM]
"O=S(=O)(O)Nc1ccc(C[C@H](Nc2nnc(-c3ccccc3)s2)c2csc(-c3ccccc3)n2)cc1 [(S)-4-(2-(5-Phenyl-1,3,4-thiadiazol-2-ylamino)-2-(2-phenylthiazol-4-yl)ethyl)-phenylsulfamic acid]",3700,46
"Cc1nnc(N[C@@H](Cc2ccc(NS(=O)(=O)O)cc2)c2csc(-c3ccccc3)n2)s1 [(S)-4-(2-(5-methyl-1,3,4-thiadiazol-2-ylamino)-2-(2-phenylthiazol-4-yl)ethyl)phenylsulfamic acid]",1400,3
"O=S(=O)(O)Nc1ccc(C[C@H](Nc2nnc(Cc3ccccc3)s2)c2csc(-c3cccs3)n2)cc1 [4-((S)-2-(5-Benzyl-1,3,4-thiadiazol-2-ylamino)-2-(2-(thiophen-2-yl)thiazol-4-yl)ethyl)phenylsulfamic acid]",3860,0.6
"Cc1nc(Cc2nnc(N[C@@H](Cc3ccc(NS(=O)(=O)O)cc3)c3csc(-c4cccs4)n3)s2)cs1 [4-((S)-2-(5-((2-Methylthiazol-4-yl)methyl)-1,3,4-thiadiazol-2-ylamino)-2-(2-(thiophen-2-yl)thiazol-4-yl)ethyl)phenylsulfamic acid]",580,0.009
"CCCc1nnc(N[C@@H](Cc2ccc(NS(=O)(=O)O)cc2)c2csc(-c3cccs3)n2)s1 [4-((S)-2-(5-Propyl-1,3,4-thiadiazol-2-ylamino)-2-(2-(thiophen-2-yl)thiazol-4-yl)ethyl)phenylsulfamic acid]",4710,0.2
"COC(=O)Cc1nnc(N[C@@H](Cc2ccc(NS(=O)(=O)O)cc2)c2csc(-c3cccs3)n2)s1 [4-((S)-2-(5-((Methoxycarbonyl)methyl)-1,3,4-thiadiazol-2-ylamino)-2-(2-(thiophen-2-yl)thiazol-4-yl)ethyl)phenylsulfamic acid]",1550,2
